Assay results from patent US6297230A, “Cyanoaziridines for treating cancer” (priority 2000, dated 2001).
Values after ≈ are worked out from the molar mass of the structure shown.

Key:
[1] = test system: MCF-7 breast cancer cells (sens.); assay: In vitro antitumor activity, MCF-7 breast (sensitive); assay type: cell-based; details: Homo sapiens, MCF7
From the text: (§1) 1) in vitro tumor cell viability assays using MTT and SRB dye reaction endpoints.
(§2) Sulforhodamine B (SRB) Assay for Adherent Tumor Cells
(§3) Sulforhodamine B (SRB) is a protein binding aminoxanthene dye with two sulfonic acid groups. (Lillie, R. D., H. J. Conn's Biological Stains, 9th Ed., Baltimore; Williams & Wilkins, 1977.) It quantitates whole cell protein content by the intensity of dye staining and relates this to the number of viable cells. […] The SRB assay is used for cells which normally adhere to surfaces (in this case plastic culture flasks or petri dishes) as part of their requirement for growth and division in vitro. The SRB assay is currently used by the National Cancer Institute in the anticancer drug screening program. (Skehan, et al., J Natl Cancer Inst 82:1107-1112, 1990; Rubinstein, et al., J Natl Cancer Inst 82:1113-1118, 1990.) Methodologic comparisons have shown that SRB results are linear for the number of tumor cells over a 100-fold range, and for protein content determined by a modified Lowry method or Standard Bradford (Bradford, M., Anal Biochem 72:248-254, 1976) methods. […] (Lillie, R. D., H. J. Conn's Biological Stains, 9th Ed., Baltimore; Williams & Wilkins, 1977.)
(§4) Cell cultures of 10^3 -10^7 cells growing in 96-well plastic microtiter plates are fixed with 50% trichloroacetic acid (TCA) for 30 minutes at 4° C. The cells are then stained with 0.4% (w/v) sulforhodamine B (SRB) dissolved in 1% acetic acid. Unbound dye is removed by 4 washes with 1% acetic acid, and protein-bound dye is extracted with 10 mM unbuffered Tris® base [tris(hydroxymethyl)aminomethane]. The optical density (OD) of this extracted solution is measured at […] in a microtiter plate ultraviolet absorbance detector. Cell viability is expressed as percent of control by dividing the optical densities and multiplying the result by 100.
(§5) Microculture Tetrazolium (MTT) Assay for Tumor Cells
(§6) Tumors are disaggregated into single cell suspensions using mechanical, hypoosmotic, and/or enzymatic (trypsin) methods. The cells are plated at a concentration of 3-5×10^4 per […] well into plastic 96-well plates. Growth medium containing 5-10% (vol/vol) heat-inactivated fetal bovine serum and penicillin/streptomycin (both […]) are added prior to incubation at 37° C. for 6 days. Afterwards the medium containing the drug is removed, the cells are centrifuged in fresh medium or phosphate-buffered saline (pH 7.4). A tetrazolium dye, […]-2,5-diphenyl tetrazolium (MTT), is then added. (Mossman, T., J Immunol 65:55-63, 1983.) This dye forms a colored formazan product upon activation by mitochondrial reductases in viable cells. Typically, the formazan product is solubilized in acid-propanol or DMSO. The intensity of the color is proportional to viable cell numbers and this is quantitated by spectrophotometric absorbance at 570 nm on a micro ELISA plate reader. The results are calibrated in % control absorbance from untreated tumor cells. (Alley, et al., Cancer Res 48:589-601, 1988.)
(§7) Table 3 gives the potencies of the new aziridine-1-carboxamides in a panel of human and murine tumor cells in culture. The tumor cell lines in this table are selected to represent a range of histological and growth phenotypes. Their characteristics are described below.
1.1 MCF-7 Breast Cancer: The parental (sensitive) MCF-7 breast cancer is an estrogen-dependent adenocarcinoma originally derived from a pleural effusion in a person with advanced metastatic breast cancer. (Soule, et al., J Natl Cancer Inst 51:1409-1416, 1973.)

MCF-7/MITOX cells = assay: In vitro antitumor activity, MCF-7/MITOX; assay type: cell-based; details: Homo sapiens, MCF7/Mitox; MCF-7 breast, mitoxantrone resistant
From the text: as §1, §2, §3, §4, §5, §6, §7
(§8) 1.3 MCF-7/D40 and MCF-7/MITOX cell lines were developed by chronic exposure in vitro to increasing concentrations of the DNA-intercalating antitumor agents doxorubicin and mitoxantrone, respectively. […] The MCF-7/D40 cells express the cell membrane efflux pump, P-glycoprotein and are over 40-fold resistant to doxorubicin, mitoxantrone and the vinca alkaloids, vinblastine and vincristine.

MCF-7/D40 cells = assay: In vitro antitumor activity, MCF-7/D40; assay type: cell-based; details: Homo sapiens, MCF7; MCF-7 breast, D40 (40-fold doxorubicin resistant)
From the text: as §1, §2, §3, §4, §5, §6, §7, §8

A-549 lung cancer cells = assay: In vitro antitumor activity, A-549 lung; assay type: cell-based; details: Homo sapiens, A549
From the text: as §1, §2, §3, §4, §5, §6, §7
3.0 A-549 Human Lung Cancer is an adenocarcinoma type of non-small cell lung cancer (NSCLC). It was established by Girard, et al. from a fresh tumor specimen obtained from a person with advanced lung cancer. (Girard, et al., J Natl Cancer Inst 51(5):1417-1423, 1973.) It has 5.6% plating efficiency (colony formation) on agar-coated plates, 66 modal chromosome number and grows rapidly when injected subcutaneously, forming acinar pattern tumors in immunodeficient mice. […]

[2] = Body weight and lethality in SCID mice treated with AMP-404; assay type: in vivo
Method: The SCID mouse colony is maintained in a barrier facility with specially filtered air, autoclaved (sterilized) food and water and protective handling precautions (gloves, mask, gown) to prevent inadvertent infection. For tumor studies, human tumor cells are grown in vitro, harvested, counted and injected subcutaneously into the front flank area. Tumor cell innocula range from 10^6 -2×10^7 cells/mouse. Palpable tumors begin to develop after 1-3 weeks and sizes are determined by caliper measure of the widest perpendicular diameters. These dimensions are converted to mass using the formula: […]
Drug treatments are given by intravenous (IV) or intraperitoneal (IP) injection beginning 24 hours after tumor implantation (day 1). […] Drug therapy began 1 day later with AMP-404 dissolved in a water-miscible co-solvent system containing (per mL): benzyl alcohol 30 mg; polysorbate 80 mw, 80 mg; polyethylene glycol 300 mw, 650 mg; and q.s. to 1.0 mL in absolute ethanol. The daily dose was either 50 mg/kg or 100 mg/kg. Therapy was continued daily for […] and tumors were measured three times per week up to the 7 week ending period (two weeks after stopping drug therapy).

tumor cell line panel = assay: Panel of tumor cell lines in vitro; assay type: cell-based, human and murine; details: all 3 MCF-7 breast lines and parental WiDr colon
Method: as §1, §2, §4, §6
Table 3 gives the potencies of the new aziridine-1-carboxamides in a panel of human and murine tumor cells in culture. […]

Row | SMILES | IC50 [1] | IC50 (MCF-7/MITOX cells) | IC50 (MCF-7/D40 cells) | IC50 (A-549 lung cancer cells) | Weight loss ([2]; 50 mg/kg daily) | Mean body weight loss compared to control ([2]; 100 mg/kg daily) | Drug-induced lethality ([2]; mouse, in vivo) | Tumor cell sensitivity in solid tumor lines (tumor cell line panel)
1 | CNC(=O)N1CC1C#N (centres unmarked) [AMP 403, 2-Cyanoaziridine-1-(N-methyl)carboxamide] | 3.3 µg/mL (≈ 26.4 µM) | 2.3 µg/mL (≈ 18.4 µM) | 2.1 µg/mL (≈ 16.8 µM) |  |  |  |  | 
2 | N#CC1CN1C(=O)Nc1ccccc1 (centres unmarked) [AMP 404, 2-Cyanoaziridine-1-(N-phenyl)carboxamide] | 0.5 µg/mL (≈ 2.67 µM) | 0.8 µg/mL (≈ 4.27 µM) | 0.5 µg/mL (≈ 2.67 µM) | 1.6 µg/mL (≈ 8.55 µM) | no apparent weight loss | 15-20% | no drug-induced lethality | tumor cell sensitivity increased
3 | CCNC(=O)N1CC1C#N (centres unmarked) [AMP 406, 2-Cyanoaziridine-1-(N-ethyl)carboxamide] | 4 µg/mL (≈ 28.7 µM) | 1.4 µg/mL (≈ 10.1 µM) | 2.8 µg/mL (≈ 20.1 µM) | 2.5 µg/mL (≈ 18 µM) |  |  |  | 
4 | CC(C)(C)NC(=O)N1CC1C#N (centres unmarked) [AMP 410, 2-Cyanoaziridine-1-(N-t-butyl)carboxamide] | > 10 µg/mL | 20.1 µg/mL (≈ 120 µM) | 31.8 µg/mL (≈ 190 µM) | 33 µg/mL (≈ 197 µM) |  |  |  | 
5 | N#CC1CN1C(=O)NCc1ccccc1 (centres unmarked) [AMP 412, 2-Cyanoaziridine-1-(N-benzyl)carboxamide] | 1.5 µg/mL (≈ 7.45 µM) | 0.7 µg/mL (≈ 3.48 µM) | 1.2 µg/mL (≈ 5.96 µM) | 1.5 µg/mL (≈ 7.45 µM) |  |  |  | 
6 | N#CC1CN1C(=O)NC1CCCCC1 (centres unmarked) [AMP 413, 2-Cyanoaziridine-1-(N-cyclohexyl)carboxamide] | 2.5 µg/mL (≈ 12.9 µM) | 1.9 µg/mL (≈ 9.83 µM) | 1.7 µg/mL (≈ 8.8 µM) | 1.9 µg/mL (≈ 9.83 µM) |  |  |  | 
7 | N#CC1CN1C(=O)Nc1ccc(F)cc1 (centres unmarked) [AMP 415, 2-Cyanoaziridine-1-[N-(4-fluorophenyl)]carboxamide] | 0.4 µg/mL (≈ 1.95 µM) | 0.6 µg/mL (≈ 2.92 µM) | 0.5 µg/mL (≈ 2.44 µM) | 1.3 µg/mL (≈ 6.34 µM) |  |  |  | tumor cell sensitivity increased
8 | N#CC1CN1C(=O)Nc1ccc(C(F)(F)F)cc1 (centres unmarked) [AMP 416, 2-Cyanoaziridine-1-[N-(4-trifluorophenyl)]carboxamide] | 0.4 µg/mL (≈ 1.57 µM) | 0.3 µg/mL (≈ 1.18 µM) | 0.4 µg/mL (≈ 1.57 µM) | 1.1 µg/mL (≈ 4.31 µM) |  |  |  | tumor cell sensitivity increased
9 | CCOC(=O)c1ccc(NC(=O)N2CC2C#N)cc1 (centres unmarked) [AMP 419, 2-Cyanoaziridine-1-[N-(4-ethoxycarbonylphenyl)]carboxamide] |  |  |  | 1.5 µg/mL (≈ 5.79 µM) |  |  |  | 
